Test results: patent US6632794B1, “Insulin-like growth factor agonist molecules” (Genentech, Inc., priority 1997, dated 2003)
Positions of bridges follow the written chain, without caps; N, C: chain ends. Residues, ends and D or L forms follow the SMILES beside them. No end group written: not given here.

Legend:
IGFBP-1 [1] = target: T1, IGFBP-1 (Homo sapiens, UniProt P08833); test: KIRA assay of IGF-I activity with IGF-I plus IGFBP-1 and peptide; type: cell-based; details: FIG. 37B
T1 construct: biotin (chemical label, EZ-LINK NHS-SS-Biotin)
T1 sequence (P08833 26-259): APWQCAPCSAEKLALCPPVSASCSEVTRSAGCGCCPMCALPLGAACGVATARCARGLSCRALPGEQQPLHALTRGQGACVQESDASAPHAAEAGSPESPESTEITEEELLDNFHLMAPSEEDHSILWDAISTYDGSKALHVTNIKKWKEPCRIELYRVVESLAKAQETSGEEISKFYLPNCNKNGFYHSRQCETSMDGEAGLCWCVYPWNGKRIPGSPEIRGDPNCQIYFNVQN
Method: (§1) C. In Vitro Activation (KIRA)
(§2) The ability of several synthetic peptides to block IGF-I binding to IGFBPs and release functional IGF-I was tested in a KIRA assay of IGF-I activity, as described in Example 1. Cells were treated with IGF-I alone, peptide alone, peptide plus IGF-I, IGF-I plus binding protein (IGFBP-1 or IGFBP-3), or IGF-I plus binding protein (IGFBP-1 or IGFBP-3) and peptide.

IGFBP-3 [2] = target: T2, IGFBP-3 (Homo sapiens, UniProt P17936); test: ^125I-IGF-I competitive binding plate assay, IGFBP-3; details: FIG. 35
T2 sequence (P17936 28-291): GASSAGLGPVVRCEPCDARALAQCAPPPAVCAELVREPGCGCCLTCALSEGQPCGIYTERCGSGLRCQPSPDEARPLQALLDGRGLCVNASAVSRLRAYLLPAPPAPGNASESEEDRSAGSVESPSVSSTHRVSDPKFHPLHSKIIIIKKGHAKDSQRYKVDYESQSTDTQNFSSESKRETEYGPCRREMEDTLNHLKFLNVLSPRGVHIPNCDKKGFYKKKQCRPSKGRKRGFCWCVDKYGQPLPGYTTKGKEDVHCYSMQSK
Method: (§3) The mutant (Leu^24,Ala^31)hIGF-I was also tested for its ability to displace radio-labeled rhIGF-I off the IGFBPs in a competitive binding assay. This assay involves coating recombinant human (rh) IGFBP-1 or rhIGFBP-3 (160 ng/ml) onto 96-well plates overnight, blocking the plates for one hour with 0.5% BSA, adding rhIGF-I (250-0.08 ng/ml) or (Leu^24,Ala^31)hIGF-I for 1 hour, then adding 20,000 cpm of ^125I-IGF-I and incubating for 2 hours before washing and counting.
(§4) As an additional assay of peptide activity, several peptides were tested in an assay using ^125I-labeled IGF-I to measure inhibition of IGFBP binding, as described in Example 1 (Assay 3). Serial dilutions of peptide were added to an IGFBP-1 or an IGFBP-3 plate. Thereafter, ^125I-labeled IGF-I was added and the plates were incubated for 2 hours. The plates were then washed and counted to determine the amount of bound IGF-I.

IGFBP-1 [3] = target: T1, IGFBP-1; test: Biotin-BP plate (ELISA) assay, biotinylated IGFBP-1 binding to IGF-I; details: FIG. 33
Method: 1. Biotin-BP Assay (for IGFBP-1 Binders)
For inhibition of IGFBP-1 binding, IGFBP-1 (as well as IGFBP-3 as a control) were biotinylated as described above. MAXISORP™plates were coated and blocked as described above, using 2 μg/mL IGF-I. In a separate plate, serial dilutions of peptide were premixed with a constant concentration (20 nM) of biotinylated IGFBP-1. After 20 min. at room temperature, the mixture was added to the IGF-I plate. The peptide/IGFBP mix was then removed and the plate was washed ten times with PBS buffer containing 0.05% TWEEN-20™ surfactant. Bound biotin-IGFBP-1 was then detected using streptavidin-conjugated horse radish peroxidase, and a chromogenic substrate.
A second series of peptides made use of non-natural amino acids to probe whether other structural features such as an added methyl group at the alpha carbon, or an isomer (D-alanine) could affect peptide binding to IGFBP-1.
(§5) Substitutions at the N-terminus or C-terminus yielded affinity improvements. […] All of these peptides had similar or improved apparent affinity for IGFBP-1 as compared with bp1-01 and bp1-02 and are thus expected to increase the availability of IGF-I in an in vitro cell culture assay.

IGFBP-3 [4] = target: T2, IGFBP-3; test: BIAcore competition assay, IGFBP-3 binding to immobilized IGF-I; details: for IGF-I Inhibition IC50 (mut)/IC50 (wt): bp3-01-ox variants by BIAcore, wt = bp3-01-ox
Method: A. BIAcore™ Competition Assay (for IGFBP-3 Binders)
IGF-I was immobilized on a dextran chip for inhibition assays using a BIAcore™ 2000 surface-plasmon-resonance device (BIAcore, Inc., Piscataway, N.J.) to measure free binding protein. […] Serial dilutions of peptide were mixed with a constant concentration (40 nM) of IGFBP-3. After incubation for >1 hour at room temperature, an aliquot of 20 μL was injected at a flow rate of 20 μL/min over the IGF-I chip. Following the injection, a response reading was taken to measure the relative amount of IGFBP-3 bound to the IGF-I.

[5] = target: T3, recombinant human (rh) IGFBP-1 (Homo sapiens, UniProt P08833); test: ^125I-IGF-I competitive binding plate assay, IGFBP-1; details: FIG. 36
T3 sequence (P08833 26-259): T1 sequence (P08833 26-259)
Method: as §3, §4

IGFBP-3 [6] = target: T2, IGFBP-3; test: KIRA assay of IGF-I activity with IGF-I plus IGFBP-3 and peptide; type: cell-based
Method: as §1, §2
It is believed that this would drop to 30 uM with a 1:1 ratio.

IGFBP-3 [7] = target: T2, IGFBP-3; test: BIAcore competition assay, IGFBP-3 binding to immobilized IGF-II; details: 20 nM IGFBP-3; approximately 1500 RU immobilized IGF-II; read-out: IC50, inhibition of IGFBP-3 binding to IGF-II (BIAcore)
Method: D. BIAcore™ Competition Assay (for IGFBP-3 Binders)
IGF-II was immobilized on a dextran chip for inhibition assays using a BIAcore™ 2000 surface-plasmon-resonance device (BIAcore, Inc., Piscataway, N.J.) to measure free binding protein. IGF-II was biotinylated as described above, and injected over a chip to which streptavidin had been coupled (BIAcore, Inc.) to give approximately 1500 RU of immobilized IGF-II. […] Serial dilutions of peptide were mixed with a constant concentration (20 nM) of IGFBP-3. After incubation for ≧1 hour at room temperature, an aliquot of 20 μl was injected at a flow rate of 20 μl/min over the IGF-II chip. Following the injection, a response reading was taken to measure the relative amount of IGFBP-3 bound to the IGF-II.

[8] = test system: endogenous IGFBPs present in human serum; test: Displacement of ^125I-IGF-I from IGFBPs in human serum (FPLC-SEC); type: binding; details: human serum; peptide at 0.2 mM
Method: To determine if the IGF mutant could displace IGF-I from endogenous IGFBPs present in human serum, the following experiment was performed. Radiolabeled rhIGF-I (^125-IGF-I) was incubated with normal human serum samples at a concentration of 33 ng/ml for 16 hr at 4° C. to allow for the formation of […] complexes. […] The samples (n=3) were then analyzed by FPLC size-exclusion chromatography (FPLC-SEC) to determine the relative size and amounts of the ^125I-IGF-I:IGFBP complexes.
Data are expressed as cpm per fraction (n=1).
This Example tests an IGFBP-3-specific peptide, BP15, for its ability to block the binding of ^125I-IGF-I in human serum. Human serum was incubated with ^125I-IGF-I±the peptide and the amount of tracer bound to IGFBPs via size-exclusion chromatography was measured.

IGFBP-1 [9] = target: T1, IGFBP-1; test: BIAcore competition assay, IGFBP-1 binding to IGF-I; details: IGFBP-1
Method: Two series of synthetic peptide variants were generated to determine which side chains of the bp1-01 peptide might contribute directly to binding IGFBP-1. In the first series an alanine-scanning approach (Cunningham and Wells, Science, 244: 1081-1085 (1989)) was used to remove that portion of each side chain beyond the beta carbon. The contribution of these atoms to the free energy of binding of the peptide to IGFBP-1 was then assessed by measuring the potency (IC50) of the variant for inhibiting IGFBP-1 binding to IGF-I or IGF-II in a BIAcore™competition assay, analogous to that described for IGFBP-3 (see Example 7).
as §5

[10] = 40 nM IGFBP-3, 400 to 800 RU immobilized IGF-I, read-out: BIAcore Assay IC50, inhibition of IGF-I binding to IGFBP-3

Molecule	IC50 (IGFBP-3 [4]; [10]) [µM]	inhibition of ^125I-IGF-I binding to an IGFBP-3 plate (IGFBP-3 [2])	IGF-I Inhibition IC50 (mut)/IC50 (wt) (IGFBP-3 [4])	inhibition of ^125I-IGF-I binding to an IGFBP-1 coated plate [5]	IC50 (IGFBP-3 [7]) [µM]	also measured
CSCC[C@H](NC(=O)[C@H](CC(N)=O)NC(=O)[C@@H]1CSSC[C@H](NC(=O)[C@@H](NC(=O)[C@H](CCC(=O)O)NC(=O)[C@H](CCC(=O)O)NC(=O)[C@@H](N)CO)C(C)C)C(=O)N[C@@H](Cc2c[nH]c3ccccc23)C(=O)N2CCC[C@H]2C(=O)N[C@@H](C(C)C)C(=O)N[C@@H](C)C(=O)N[C@@H](CCC(=O)O)C(=O)N[C@@H](Cc2c[nH]c3ccccc23)C(=O)N[C@@H](Cc2ccc(O)cc2)C(=O)N[C@@H](CC(C)C)C(=O)N1)C(=O)N[C@@H](Cc1c[nH]c2ccccc12)C(=O)NCC(=O)O [BP3-01-ox] (H-SEEVCWPVAEWYLCNMWG-OH; disulfide 5-14; N-terminus and C-terminus assumed)		inhibition	1	did not inhibit	0.92	effect on IGF-I activity in KIRA with IGF-I plus IGFBP-1 (IGFBP-1 [1]): no significant effect; inhibition of biotinylated IGFBP-1 binding to IGF-I plate (IGFBP-1 [3]): little or no inhibition; effect on IGF-I activity in KIRA with IGF-I plus IGFBP-3 (IGFBP-3 [6]; FIG. 37D): no significant effect
CSCC[C@@H]1NC(=O)[C@H](Cc2c[nH]c3ccccc23)NC(=O)[C@@H]2CCCN2C(=O)CNC(=O)[C@H](CC(=O)O)NC(=O)[C@H](C)NC(=O)[C@@H](NC(=O)[C@@H](NC(=O)CNC(=O)[C@H](CCSC)NC(=O)[C@@H](N)CC(=O)O)C(C)C)CSSC[C@@H](C(=O)N[C@@H](CCC(=O)O)C(=O)N[C@@H](Cc2c[nH]c3ccccc23)C(=O)N[C@H](C(=O)N[C@@H](CCC(=O)O)C(=O)O)[C@@H](C)O)NC(=O)[C@H](C(C)C)NC(=O)[C@H](Cc2ccc(O)cc2)NC1=O [BP3-02-ox] (H-DMGVCADGPWMYVCEWTE-OH; disulfide 5-14; N-terminus and C-terminus assumed)	12	inhibition		did not inhibit		
CC(C)C[C@@H]1NC(=O)[C@H](Cc2ccc(O)cc2)NC(=O)[C@H](Cc2c[nH]c3ccccc23)NC(=O)[C@H](CCC(=O)O)NC(=O)[C@H](C)NC(=O)[C@H](C(C)C)NC(=O)[C@@H]2CCCN2C(=O)[C@H](Cc2c[nH]c3ccccc23)NC(=O)[C@@H](NC(=O)[C@@H](NC(=O)[C@H](CCC(=O)O)NC(=O)[C@H](CCC(=O)O)NC(=O)[C@@H](N)CO)C(C)C)CSSC[C@@H](C(=O)N[C@@H](CC(N)=O)C(=O)O)NC1=O [BP15] (H-SEEVCWPVAEWYLCN-OH; disulfide 5-14; N-terminus and C-terminus assumed)	0.75		0.36		0.78	decrease in ^125I-IGF-I associated with the 150-KD IGF/IGFBP-3/ALS complex [8]: ~42%; increase in the amount of free ^125I-IGF-I [8]: 59%; IC50 (IGFBP-3 [4]; bp3-01-ox variants by BIAcore competition assay, read-out: IGF-I Inhibition IC50): 0.72 µM; IC50 believed to result with a 1:1 ratio (KIRA) (IGFBP-3 [6]; IGFBP-3:IGF-1 1:1 ratio, not tested): 30 µM; IC50 (IGFBP-3 [6]; IGFBP-3:IGF-1 at a 3:1 ratio, read-out: IC50 for blocking of IGFBP-3 (activation of the KIRA assay)): 95 µM
CRAGPLQWLCEKYFSTY-nh2 (CRAGPLQWLCEKYFSTY-NH2; disulfide 1-10) [bp1-21B]						affinity improvement compared with bp1-16 (IGFBP-1 [9]): ~3 fold

Further lines, with some results ahead:

IC50 (IGFBP-3 [4]; [10]) [µM]	Molecule	inhibition of ^125I-IGF-I binding to an IGFBP-3 plate (IGFBP-3 [2])	IGF-I Inhibition IC50 (mut)/IC50 (wt) (IGFBP-3 [4])	inhibition of ^125I-IGF-I binding to an IGFBP-1 coated plate [5]	IC50 (IGFBP-3 [7]) [µM]	also measured
< 10	CC[C@H](C)[C@@H]1NC(=O)[C@H](Cc2ccc(O)cc2)NC(=O)CNC(=O)[C@H](CCC(N)=O)NC(=O)[C@H](CC(=O)O)NC(=O)[C@H](Cc2c[nH]cn2)NC(=O)[C@H](CCCNC(=N)N)NC(=O)[C@H](CC(=O)O)NC(=O)[C@H](Cc2c[nH]c3ccccc23)NC(=O)[C@@H](NC(=O)[C@@H](NC(=O)[C@H](CCC(=O)O)NC(=O)[C@H](Cc2c[nH]c3ccccc23)NC(=O)[C@H](C)NC(=O)[C@@H](N)C(C)C)C(C)C)CSSC[C@@H](C(=O)N[C@H](C(=O)N[C@H](C(=O)N[C@@H](CC(=O)O)C(=O)N[C@@H](CO)C(=O)O)[C@@H](C)O)[C@@H](C)O)NC1=O [BP3-4D3.11] (H-VAWEVCWDRHDQGYICTTDS-OH; disulfide 6-16; N-terminus and C-terminus assumed)				1	
9	CC(C)C[C@@H]1NC(=O)[C@H](Cc2ccc(O)cc2)NC(=O)[C@H](Cc2c[nH]c3ccccc23)NC(=O)[C@H](CCC(=O)O)NC(=O)[C@H](C)NC(=O)[C@H](C(C)C)NC(=O)[C@@H]2CCCN2C(=O)[C@H](Cc2c[nH]c3ccccc23)NC(=O)[C@@H](NC(=O)[C@@H](N)C(C)C)CSSC[C@@H](C(=O)N[C@@H](CC(N)=O)C(=O)O)NC1=O [BP17] (H-VCWPVAEWYLCN-OH; disulfide 2-11; N-terminus and C-terminus assumed)				5.1	
